According to ChEMBL document CHEMBL1137986, “Multidrug resistance reversal activity of permethyl ningalin B amide derivatives” (Bioorg Med Chem Lett, 2004):

Key:
HCT-116 [1] = assay: inhibitory activity of compound against multidrug resistance HCT116/VM46 cell line treated with Doxorubicin; assay type: functional, cell-based; details: Homo sapiens
HCT-116 [2] = assay: Intrinsic cytotoxic activity against wild type HCT116 cell line; assay type: functional, cell-based; details: Homo sapiens
HCT-116 [3] = assay: Intrinsic cytotoxic activity against multidrug resistant HCT116/VM46 cell line; assay type: functional, cell-based; details: Homo sapiens
HCT-116 [4] = assay: Multi drug resistance reversal in HCT116/VM46 cell line treated with Vinblastine; assay type: functional, Homo sapiens
HCT-116 [5] = assay: Multi drug resistance reversal in HCT116/VM46 cell line treated with Doxorubicin; assay type: functional, Homo sapiens
HCT-116 [6] = assay: inhibitory activity of compound against multidrug resistant HCT116/VM46 cell line treated with Vinblastine; assay type: functional, cell-based; details: Homo sapiens
HCT-116 [7] = assay: inhibitory activity of compound against Multidrug resistance HCT116/VM46 cell line treated with Doxorubicin; assay type: functional, cell-based; details: Homo sapiens
HCT-116 [8] = assay: Intrinsic cytotoxic activity against Multidrug resistant HCT116/VM46 cell line; assay type: functional, cell-based; details: Homo sapiens
HCT-116 [9] = assay: inhibitory activity of compound against Multidrug resistant HCT116/VM46 cell line treated with Vinblastine; assay type: functional, cell-based; details: Homo sapiens
HCT-116 [10] = assay: inhibitory activity against Multidrug resistant HCT116/VM46 cell line treated with Vinblastine at a compound concentration 7.5 uM; assay type: functional, cell-based; details: Homo sapiens
HCT-116 [11] = assay: Multi drug resistance reversal in HCT116/VM46 cell line treated with Doxorubicin at a compound concentration 7.5 uM; assay type: functional, Homo sapiens
HCT-116 [12] = assay: inhibitory activity of compound against Multidrug resistant HCT116/VM46 cell line treated with Doxorubicin at a compound concentration 7.5 uM; assay type: functional, cell-based; details: Homo sapiens
HCT-116 [13] = assay: Multi drug resistance reversal in HCT116/VM46 cell line treated with Vinblastine at a compound concentration 7.5 uM; assay type: functional, Homo sapiens

IC50 (HCT-116 [1]) | IC50 (HCT-116 [6]) | IC50 (HCT-116 [7]) | IC50 (HCT-116 [9]) | IC50 (HCT-116 [10]) | IC50 (HCT-116 [12]) | Compound | IC50 (HCT-116 [2]) | IC50 (HCT-116 [3]) | Reversion (HCT-116 [4]) | Reversion (HCT-116 [5]) | IC50 (HCT-116 [8]) | Reversion (HCT-116 [11]) | Reversion (HCT-116 [13])
100 nM | 4 nM |  |  |  |  | COc1ccc(C2CC2NNC(=O)c2c(-c3ccc(OC)c(OC)c3)c3c4cc(OC)c(OC)cc4oc(=O)c3n2CCc2ccc(OC)c(OC)c2)cc1 (stereo not drawn) | > 100000 nM | > 100000 nM | 100% | 100% |  |  | 
 |  | 100 nM | 4 nM |  |  | COc1ccc(CCn2c(C(=O)NNCCc3cccs3)c(-c3ccc(OC)c(OC)c3)c3c4cc(OC)c(OC)cc4oc(=O)c32)cc1OC | > 100000 nM |  | 100% | 100% | > 100000 nM |  | 
 |  | 150 nM | 9 nM |  |  | COCCN(CCOC)NC(=O)c1c(-c2ccc(OC)c(OC)c2)c2c3cc(OC)c(OC)cc3oc(=O)c2n1CCc1ccc(OC)c(OC)c1 | 25000 nM |  | 45% | 50% | 15000 nM |  | 
 |  | 100 nM | 2 nM |  |  | COc1cccc(CCNNC(=O)c2c(-c3ccc(OC)c(OC)c3)c3c4cc(OC)c(OC)cc4oc(=O)c3n2CCc2ccc(OC)c(OC)c2)c1 | 25000 nM |  | 200% | 100% | 5000 nM |  | 
 |  | 180 nM | 8 nM |  |  | COc1ccc(CCn2c(C(=O)NN[C@@H](C)C(=O)OC(C)(C)C)c(-c3ccc(OC)c(OC)c3)c3c4cc(OC)c(OC)cc4oc(=O)c32)cc1OC | 7000 nM |  | 50% | 55% | 4000 nM |  | 
 |  | 750 nM | 50 nM |  |  | COc1ccc(CCn2c(C(=O)NCCNC(=O)c3c(-c4ccc(OC)c(OC)c4)c4c5cc(OC)c(OC)cc5oc(=O)c4n3CCc3ccc(OC)c(OC)c3)c(-c3ccc(OC)c(OC)c3)c3c4cc(OC)c(OC)cc4oc(=O)c32)cc1OC | > 100000 nM |  | 10% | 10% | > 100000 nM |  | 
 |  |  | 2 nM |  |  | COC(=O)c1c(-c2ccc(OC)c(OC)c2)c2c3cc(OC)c(OC)cc3oc(=O)c2n1CCc1ccc(OC)c(OC)c1 |  |  | 100% |  |  |  | 
 |  | 100 nM | 6 nM |  |  | COc1ccc(CCn2c(C(=O)NN3CCC4(CC3)OCCO4)c(-c3ccc(OC)c(OC)c3)c3c4cc(OC)c(OC)cc4oc(=O)c32)cc1OC | 15000 nM |  | 67% | 100% | 10000 nM |  | 
 |  | 100 nM | 4 nM |  |  | COc1ccc(CCn2c(C(=O)NNCCc3c[nH]c4ccccc34)c(-c3ccc(OC)c(OC)c3)c3c4cc(OC)c(OC)cc4oc(=O)c32)cc1OC | > 100000 nM |  | 100% | 100% | > 100000 nM |  | 
 |  | 100 nM | 4 nM |  |  | COc1ccc(CCNNC(=O)c2c(-c3ccc(OC)c(OC)c3)c3c4cc(OC)c(OC)cc4oc(=O)c3n2CCc2ccc(OC)c(OC)c2)cc1OC | 5000 nM |  | 100% | 100% | 5000 nM |  | 
 |  | 120 nM | 4 nM |  |  | COc1ccc(CNNC(=O)c2c(-c3ccc(OC)c(OC)c3)c3c4cc(OC)c(OC)cc4oc(=O)c3n2CCc2ccc(OC)c(OC)c2)cc1 | 40000 nM |  | 100% | 80% | 30000 nM |  | 
 |  | 120 nM | 4 nM |  |  | COc1ccc(CCn2c(C(=O)NNC(c3ccccc3)c3ccccc3)c(-c3ccc(OC)c(OC)c3)c3c4cc(OC)c(OC)cc4oc(=O)c32)cc1OC | 25000 nM |  | 100% | 80% | 15000 nM |  | 
 |  | 100 nM | 2 nM |  |  | COc1ccc(OC)c(CCNNC(=O)c2c(-c3ccc(OC)c(OC)c3)c3c4cc(OC)c(OC)cc4oc(=O)c3n2CCc2ccc(OC)c(OC)c2)c1 | 25000 nM |  | 200% | 100% | 10000 nM |  | 
 |  | 240 nM | 7 nM |  |  | COc1ccc(CCn2c(C(=O)NN)c(-c3ccc(OC)c(OC)c3)c3c4cc(OC)c(OC)cc4oc(=O)c32)cc1OC | > 100000 nM |  | 60% | 40% | > 100000 nM |  | 
 |  | 180 nM | 10 nM |  |  | COc1ccc(CCn2c(C(=O)NNCCc3ccc(O)cc3)c(-c3ccc(OC)c(OC)c3)c3c4cc(OC)c(OC)cc4oc(=O)c32)cc1OC | 15000 nM |  | 25% | 55% | 10000 nM |  | 
 |  | 60 nM | 2 nM |  |  | COc1ccc(CCNNC(=O)c2c(-c3ccc(OC)c(OC)c3)c3c4cc(OC)c(OC)cc4oc(=O)c3n2CCc2ccc(OC)c(OC)c2)cc1 | 20000 nM |  | 200% | 167% | 10000 nM |  | 
 |  | 100 nM | 5 nM |  |  | COC(=O)[C@H](CCCNNC(=O)c1c(-c2ccc(OC)c(OC)c2)c2c3cc(OC)c(OC)cc3oc(=O)c2n1CCc1ccc(OC)c(OC)c1)NC(=O)OCc1ccccc1 | 45000 nM |  | 80% | 100% | 40000 nM |  | 
 |  | 200 nM | 10 nM |  |  | COc1ccc(CCn2c(C(=O)NNCCCCCCSC(C)=O)c(-c3ccc(OC)c(OC)c3)c3c4cc(OC)c(OC)cc4oc(=O)c32)cc1OC | 20000 nM |  | 25% | 50% | 35000 nM |  | 
 |  | 100 nM | 4 nM |  |  | COc1ccc(CCn2c(C(=O)NNCCc3ccc(F)cc3)c(-c3ccc(OC)c(OC)c3)c3c4cc(OC)c(OC)cc4oc(=O)c32)cc1OC | 30000 nM |  | 100% | 100% | 20000 nM |  | 
 |  | 100 nM | 2 nM | 0.2 nM | 10 nM | COc1ccc(CCn2c(C(=O)N(C)C)c(-c3ccc(OC)c(OC)c3)c3c4cc(OC)c(OC)cc4oc(=O)c32)cc1OC | 25000 nM |  | 100% | 100% | 20000 nM | 1000% | 1000%
 |  | 450 nM | 30 nM |  |  | COc1ccc(CCn2c(C(=O)NCCCCCCNC(=O)c3c(-c4ccc(OC)c(OC)c4)c4c5cc(OC)c(OC)cc5oc(=O)c4n3CCc3ccc(OC)c(OC)c3)c(-c3ccc(OC)c(OC)c3)c3c4cc(OC)c(OC)cc4oc(=O)c32)cc1OC | > 100000 nM |  | 15% | 20% | > 100000 nM |  | 
 |  |  | 2 nM |  |  | COc1ccc(CCn2cc(-c3ccc(OC)c(OC)c3)c3c4cc(OC)c(OC)cc4oc(=O)c32)cc1OC |  |  | 100% |  |  |  | 
 |  | 500 nM | 20 nM |  |  | COc1ccc(CCN(C)CCCC(C#N)(c2ccc(OC)c(OC)c2)C(C)C)cc1OC (stereo not drawn) |  |  | 10% | 20% |  |  | 
 |  |  |  |  |  | CC[C@]1(O)C[C@@H]2CN(CCc3c([nH]c4ccccc34)[C@@](C(=O)OC)(c3cc4c(cc3OC)N(C)[C@H]3[C@@](O)(C(=O)OC)[C@H](OC(C)=O)[C@]5(CC)C=CCN6CC[C@]43[C@@H]65)C2)C1 [VINBLASTINE] | 4 nM |  |  |  |  |  | 
